Test results from the NIST ThermoML archive (doi:10.1021/je700755t).
Numbers after ± are expanded uncertainties.

Assay: xn = mol fraction of the nth substance listed
Conditions: 101 kPa, Liquid; for viscosity: Capillary tube (Ostwald / Ubbelohde) method

CC(=O)O [acetic acid] + CN(C)C=O
Conditions | mass density [kg/m3] | viscosity [mPa·s]
303.15 K, x1 = 0.1004 | 950.1 ± 0.42 | 0.847 ± 0.008
303.15 K, x1 = 0.2009 | 961.18 ± 0.38 | 0.967 ± 0.009
303.15 K, x1 = 0.3012 | 972.65 ± 0.35 | 1.108 ± 0.009
303.15 K, x1 = 0.4014 | 984.49 ± 0.32 | 1.283 ± 0.01
303.15 K, x1 = 0.5014 | 996.33 ± 0.29 | 1.457 ± 0.011
303.15 K, x1 = 0.6014 | 1007.74 ± 0.3 | 1.613 ± 0.012
303.15 K, x1 = 0.7011 | 1018.12 ± 0.34 | 1.656 ± 0.012
303.15 K, x1 = 0.8008 | 1027.13 ± 0.38 | 1.582 ± 0.012
303.15 K, x1 = 0.9006 | 1034.47 ± 0.4 | 1.375 ± 0.011
303.15 K, x1 = 1 | 1038.66 ± 0.42 | 1.059 ± 0.009
313.15 K, x1 = 0.1004 | 940.75 ± 0.45 | 0.75 ± 0.008
313.15 K, x1 = 0.2009 | 951.76 ± 0.41 | 0.848 ± 0.008
313.15 K, x1 = 0.3012 | 963.18 ± 0.38 | 0.973 ± 0.009
313.15 K, x1 = 0.4014 | 974.95 ± 0.35 | 1.112 ± 0.009
313.15 K, x1 = 0.5014 | 986.68 ± 0.32 | 1.249 ± 0.01
313.15 K, x1 = 0.6014 | 997.98 ± 0.29 | 1.357 ± 0.011
313.15 K, x1 = 0.7011 | 1008.11 ± 0.31 | 1.39 ± 0.011
313.15 K, x1 = 0.8008 | 1016.84 ± 0.34 | 1.331 ± 0.011
313.15 K, x1 = 0.9006 | 1023.84 ± 0.37 | 1.166 ± 0.01
313.15 K, x1 = 1 | 1027.37 ± 0.39 | 0.92 ± 0.009
323.15 K, x1 = 0.1004 | 931.27 ± 0.47 | 0.669 ± 0.007
323.15 K, x1 = 0.2009 | 942.27 ± 0.44 | 0.752 ± 0.008
323.15 K, x1 = 0.3012 | 953.63 ± 0.41 | 0.85 ± 0.008
323.15 K, x1 = 0.4014 | 965.33 ± 0.38 | 0.965 ± 0.009
323.15 K, x1 = 0.5014 | 976.95 ± 0.35 | 1.071 ± 0.009
323.15 K, x1 = 0.6014 | 988.11 ± 0.32 | 1.157 ± 0.01
323.15 K, x1 = 0.7011 | 998.02 ± 0.29 | 1.18 ± 0.01
323.15 K, x1 = 0.8008 | 1006.49 ± 0.31 | 1.132 ± 0.01
323.15 K, x1 = 0.9006 | 1013.13 ± 0.34 | 1.002 ± 0.009
323.15 K, x1 = 1 | 1016.08 ± 0.35 | 0.804 ± 0.008
333.15 K, x1 = 0.1004 | 921.19 ± 0.51 | 0.597 ± 0.007
333.15 K, x1 = 0.2009 | 932.18 ± 0.47 | 0.673 ± 0.007
333.15 K, x1 = 0.3012 | 943.49 ± 0.44 | 0.755 ± 0.008
333.15 K, x1 = 0.4014 | 955.11 ± 0.41 | 0.843 ± 0.008
333.15 K, x1 = 0.5014 | 966.55 ± 0.38 | 0.935 ± 0.009
333.15 K, x1 = 0.6014 | 977.59 ± 0.35 | 0.998 ± 0.009
333.15 K, x1 = 0.7011 | 987.28 ± 0.32 | 1.015 ± 0.009
333.15 K, x1 = 0.8008 | 995.48 ± 0.3 | 0.976 ± 0.009
333.15 K, x1 = 0.9006 | 1001.78 ± 0.3 | 0.87 ± 0.008
333.15 K, x1 = 1 | 1005.04 ± 0.32 | 0.709 ± 0.008
343.15 K, x1 = 0.1004 | 911.56 ± 0.54 | 0.547 ± 0.007
343.15 K, x1 = 0.2009 | 922.54 ± 0.51 | 0.607 ± 0.007
343.15 K, x1 = 0.3012 | 933.82 ± 0.47 | 0.674 ± 0.007
343.15 K, x1 = 0.4014 | 945.35 ± 0.44 | 0.749 ± 0.008
343.15 K, x1 = 0.5014 | 956.68 ± 0.41 | 0.824 ± 0.008
343.15 K, x1 = 0.6014 | 967.55 ± 0.38 | 0.873 ± 0.008
343.15 K, x1 = 0.7011 | 977.06 ± 0.36 | 0.885 ± 0.008
343.15 K, x1 = 0.8008 | 984.99 ± 0.34 | 0.852 ± 0.008
343.15 K, x1 = 0.9006 | 990.93 ± 0.32 | 0.764 ± 0.008
343.15 K, x1 = 1 | 993.69 ± 0.32 | 0.632 ± 0.007
353.15 K, x1 = 0.1004 | 901.58 ± 0.57 | 0.499 ± 0.007
353.15 K, x1 = 0.2009 | 912.55 ± 0.54 | 0.551 ± 0.007
353.15 K, x1 = 0.3012 | 923.82 ± 0.5 | 0.608 ± 0.007
353.15 K, x1 = 0.4014 | 935.28 ± 0.47 | 0.67 ± 0.007
353.15 K, x1 = 0.5014 | 946.48 ± 0.44 | 0.73 ± 0.008
353.15 K, x1 = 0.6014 | 957.19 ± 0.41 | 0.771 ± 0.008
353.15 K, x1 = 0.7011 | 966.49 ± 0.39 | 0.78 ± 0.008
353.15 K, x1 = 0.8008 | 974.17 ± 0.37 | 0.751 ± 0.008
353.15 K, x1 = 0.9006 | 979.73 ± 0.36 | 0.677 ± 0.008
353.15 K, x1 = 1 | 982.95 ± 0.35 | 0.57 ± 0.007

O=CO [formic acid] + CN(C)C=O
Conditions | mass density [kg/m3] | viscosity [mPa·s]
303.15 K, x1 = 0.1001 | 953.65 ± 0.31 | 0.831 ± 0.008
303.15 K, x1 = 0.2 | 969.23 ± 0.29 | 0.93 ± 0.009
303.15 K, x1 = 0.3001 | 986.66 ± 0.26 | 1.048 ± 0.009
303.15 K, x1 = 0.4 | 1006.16 ± 0.26 | 1.186 ± 0.01
303.15 K, x1 = 0.4999 | 1027.99 ± 0.33 | 1.324 ± 0.011
303.15 K, x1 = 0.6003 | 1053.17 ± 0.42 | 1.466 ± 0.012
303.15 K, x1 = 0.7005 | 1081.71 ± 0.52 | 1.555 ± 0.013
303.15 K, x1 = 0.7998 | 1115.25 ± 0.64 | 1.562 ± 0.013
303.15 K, x1 = 0.9002 | 1157.02 ± 0.79 | 1.533 ± 0.013
303.15 K, x1 = 1 | 1205.07 ± 0.96 | 1.437 ± 0.013
313.15 K, x1 = 0.1001 | 943.97 ± 0.34 | 0.738 ± 0.008
313.15 K, x1 = 0.2 | 959.57 ± 0.31 | 0.815 ± 0.008
313.15 K, x1 = 0.3001 | 977.07 ± 0.28 | 0.92 ± 0.009
313.15 K, x1 = 0.4 | 996.43 ± 0.25 | 1.028 ± 0.009
313.15 K, x1 = 0.4999 | 1018.12 ± 0.31 | 1.143 ± 0.01
313.15 K, x1 = 0.6003 | 1043.03 ± 0.39 | 1.253 ± 0.011
313.15 K, x1 = 0.7005 | 1071.28 ± 0.49 | 1.313 ± 0.011
313.15 K, x1 = 0.7998 | 1104.39 ± 0.61 | 1.342 ± 0.012
313.15 K, x1 = 0.9002 | 1145.58 ± 0.75 | 1.33 ± 0.012
313.15 K, x1 = 1 | 1192.81 ± 0.92 | 1.205 ± 0.012
323.15 K, x1 = 0.1001 | 934.86 ± 0.36 | 0.662 ± 0.007
323.15 K, x1 = 0.2 | 950.34 ± 0.33 | 0.725 ± 0.008
323.15 K, x1 = 0.3001 | 967.77 ± 0.3 | 0.808 ± 0.008
323.15 K, x1 = 0.4 | 986.86 ± 0.28 | 0.898 ± 0.009
323.15 K, x1 = 0.4999 | 1008.39 ± 0.29 | 0.992 ± 0.009
323.15 K, x1 = 0.6003 | 1033.04 ± 0.37 | 1.076 ± 0.01
323.15 K, x1 = 0.7005 | 1060.99 ± 0.46 | 1.121 ± 0.01
323.15 K, x1 = 0.7998 | 1093.73 ± 0.58 | 1.14 ± 0.011
323.15 K, x1 = 0.9002 | 1134.05 ± 0.72 | 1.117 ± 0.011
323.15 K, x1 = 1 | 1180.63 ± 0.89 | 1.022 ± 0.01
333.15 K, x1 = 0.1001 | 924.58 ± 0.38 | 0.59 ± 0.007
333.15 K, x1 = 0.2 | 939.91 ± 0.35 | 0.649 ± 0.007
333.15 K, x1 = 0.3001 | 957.33 ± 0.33 | 0.72 ± 0.008
333.15 K, x1 = 0.4 | 976.15 ± 0.3 | 0.793 ± 0.008
333.15 K, x1 = 0.4999 | 997.5 ± 0.27 | 0.867 ± 0.009
333.15 K, x1 = 0.6003 | 1021.94 ± 0.34 | 0.933 ± 0.009
333.15 K, x1 = 0.7005 | 1049.51 ± 0.44 | 0.971 ± 0.009
333.15 K, x1 = 0.7998 | 1081.77 ± 0.55 | 0.982 ± 0.01
333.15 K, x1 = 0.9002 | 1121.74 ± 0.69 | 0.959 ± 0.01
333.15 K, x1 = 1 | 1167.44 ± 0.85 | 0.879 ± 0.009
343.15 K, x1 = 0.1001 | 915.36 ± 0.4 | 0.538 ± 0.007
343.15 K, x1 = 0.2 | 930.7 ± 0.38 | 0.587 ± 0.007
343.15 K, x1 = 0.3001 | 947.93 ± 0.35 | 0.643 ± 0.007
343.15 K, x1 = 0.4 | 966.58 ± 0.32 | 0.708 ± 0.008
343.15 K, x1 = 0.4999 | 987.75 ± 0.29 | 0.768 ± 0.008
343.15 K, x1 = 0.6003 | 1011.92 ± 0.32 | 0.823 ± 0.008
343.15 K, x1 = 0.7005 | 1039.13 ± 0.41 | 0.85 ± 0.009
343.15 K, x1 = 0.7998 | 1070.96 ± 0.52 | 0.857 ± 0.009
343.15 K, x1 = 0.9002 | 1110.03 ± 0.66 | 0.835 ± 0.009
343.15 K, x1 = 1 | 1154.99 ± 0.82 | 0.766 ± 0.009
353.15 K, x1 = 0.1001 | 905.11 ± 0.43 | 0.492 ± 0.007
353.15 K, x1 = 0.2 | 920.26 ± 0.4 | 0.534 ± 0.007
353.15 K, x1 = 0.3001 | 937.3 ± 0.37 | 0.582 ± 0.007
353.15 K, x1 = 0.4 | 955.9 ± 0.34 | 0.635 ± 0.007
353.15 K, x1 = 0.4999 | 976.91 ± 0.32 | 0.693 ± 0.008
353.15 K, x1 = 0.6003 | 1000.84 ± 0.29 | 0.732 ± 0.008
353.15 K, x1 = 0.7005 | 1027.78 ± 0.38 | 0.754 ± 0.008
353.15 K, x1 = 0.7998 | 1059.18 ± 0.49 | 0.756 ± 0.008
353.15 K, x1 = 0.9002 | 1097.86 ± 0.63 | 0.736 ± 0.008
353.15 K, x1 = 1 | 1142.08 ± 0.78 | 0.677 ± 0.008
